Data reported in patent US11446394B2, “Lipid nanoparticle formulations comprising lipidated cationic peptide compounds for nucleic acid delivery” (NUTCRACKER THERAPEUTICS, INC., priority 2018, dated 2022).

What was measured:
[1] = test system: HeLa cells; experiment: In vitro firefly luciferase (Fluc) expression after treatment with Fluc mRNA/amino lipidated peptoid formulations; type: cell-based; settings: peptoid:Fluc mRNA 5:1 w/w, 100 ng/well; for Luciferase Expression (RLU) 6 h: 6 hours of treatment; for Luciferase Expression (RLU) 24 h: 24 hours of treatment
Description: The efficacy of mRNA/amino lipidated peptoid formulations was evaluated in vitro based on their ability to deliver the firefly luciferase (Fluc) reporter gene to cultured cells. The amino lipidated cationic peptoids 1-36 of Example 2 were individually combined with Fluc mRNA at a 5:1 w/w ratio, and the resulting particles were added to cultured HeLa cells at a dose of 100 ng/well (in 100 μL total volume). The resulting luciferase expression (RLU) was measured by a luminescence plate reader after 6 hours and 24 hours of treatment.

[2] = mRNA encapsulation by Qubit RNA HS dye fluorescence before and after Triton X-100 lysis; type: physicochemical; settings: percentage of mRNA encapsulation; Fluc mRNA/peptoid formulation, 5:1 mass ratio peptoid:cargo
Description: (§1) To prepare nanoparticle formulations, the tertiary amino lipidated and/or PEGylated cationic peptide compound is mixed by pipetting with nucleic acid at a mass ratio between approximately 1:1 (peptide compound:cargo) and 20:1. Prior to formulation, tertiary amino lipidated and/or PEGylated cationic peptide compounds and cargo (such as nucleic acid) are diluted in ethanol and acidic buffer (PBS adjusted to pH 5.5 with 0.1 M HCl) respectively to a volume ratio of 1:3 and to target a final cargo concentration of approximately 0.05 mg/mL to 0.2 mg/mL. The exemplary amino lipidated cationic peptoids 1-36 described in Example 2 were combined with firefly luciferase (Fluc) mRNA to form nanoparticle compositions to be evaluated for therapeutic and/or prophylactic purposes in vitro or in vivo. The formulations were prepared according to the protocol of Example 3 and mixed by simple pipetting. The mRNA/peptoid formulation at a 5:1 mass ratio of peptoid:cargo were evaluated by dynamic light scattering (DLS) in order to determine the volume average particle size/diameter (nm) of the mRNA/peptoid complex and the size polydispersity index (PDI) within the formulation. The percentage of mRNA encapsulation for each formulation of the exemplary compounds were determined by fluorescence of the Qubit RNA HS (Invitrogen) dye before and after lysis of particles by Triton X-100.

[3] = Dynamic light scattering of Fluc mRNA/peptoid formulations (particle size, PDI); type: physicochemical; settings: Fluc mRNA/peptoid formulation, 5:1 mass ratio peptoid:cargo; for Size PDI: size polydispersity index by DLS; for Size (nm): volume average particle size/diameter by DLS
Description: as §1

| SMILES | % Encapsulation [2] [%] | Size PDI [3] | Size (nm) [3] [nm] | Luciferase Expression (RLU) 6 h [1] [RLU] | Luciferase Expression (RLU) 24 h [1] [RLU] |
| --- | --- | --- | --- | --- | --- |
| CCCCCCCCCCN(CC(N)=O)C(=O)CN(CCCCCCCCCC)C(=O)CN(CCc1ccccc1)C(=O)CN(CCc1ccccc1)C(=O)CN(CCN)C(=O)CN(CCc1ccccc1)C(=O)CN(CCc1ccccc1)C(=O)CN(CCN)C(=O)CN(CCc1ccccc1)C(=O)CN(CCc1ccccc1)C(=O)CN(CCN)C(=O)CN(CCc1ccccc1)C(=O)CN(CCc1ccccc1)C(=O)CN(CCN)C(=O)CN(CCc1ccccc1)C(=O)CN(CCc1ccccc1)C(=O)CNCCN [Compound 12] | 86.5 | 0.211 | 224.4 | 4.04E+02 | 5.71E+02 |
| CCCCCCCCCCN(CC(N)=O)C(=O)CN(CCCCCCCCCC)C(=O)CN(CCCCCCCCCC)C(=O)CN(CCCCCCCCCC)C(=O)CN(CCCCCCCCCC)C(=O)CN(CCc1ccccc1)C(=O)CN(CCc1ccccc1)C(=O)CN(CCN)C(=O)CN(CCc1ccccc1)C(=O)CN(CCc1ccccc1)C(=O)CN(CCN)C(=O)CN(CCc1ccccc1)C(=O)CN(CCc1ccccc1)C(=O)CNCCN [Compound 19] | 70.9 | 0.158 | 276 | 8.20E+03 | 1.09E+04 |
| CCCCCCCCCCN(CC(N)=O)C(=O)CN(CCCCCCCCCC)C(=O)CN(CCCCCCCCCC)C(=O)CN(CCCCCCCCCC)C(=O)CN(CCCCCCCCCC)C(=O)CN(CCc1ccccc1)C(=O)CN(CCc1ccccc1)C(=O)CN(CCN)C(=O)CN(CCc1ccccc1)C(=O)CN(CCc1ccccc1)C(=O)CN(CCN)C(=O)CN(CCc1ccccc1)C(=O)CN(CCc1ccccc1)C(=O)CN(CCN)C(=O)CN(CCc1ccccc1)C(=O)CN(CCc1ccccc1)C(=O)CNCCN [Compound 21] | 65.4 | 0.174 | 386.5 | 3.45E+03 | 1.24E+04 |
| CCCCCCCCCCN(CC(=O)N(CC(=O)N(CCCCCCCCCC)CC(=O)N(CC(N)=O)CC(CC)CCCC)CC(CC)CCCC)C(=O)CN(CCc1ccccc1)C(=O)CN(CCc1ccccc1)C(=O)CN(CCN)C(=O)CN(CCc1ccccc1)C(=O)CN(CCc1ccccc1)C(=O)CN(CCN)C(=O)CN(CCc1ccccc1)C(=O)CN(CCc1ccccc1)C(=O)CNCCN (stereo not shown) [Compound 24] | 87.0 | 0.135 | 161 | 1.79E+04 | 3.43E+04 |
| CCCCCCCCCCN(CC(N)=O)C(=O)CN(CCCCCCCCCC)C(=O)CN(CCCCCCCCCC)C(=O)CN(CCCCCCCCCC)C(=O)CN(CCc1ccccc1)C(=O)CN(CCc1ccccc1)C(=O)CN(CCCN)C(=O)CN(CCc1ccccc1)C(=O)CN(CCc1ccccc1)C(=O)CN(CCCN)C(=O)CN(CCc1ccccc1)C(=O)CN(CCc1ccccc1)C(=O)CN(CCCN)C(=O)CN(CCc1ccccc1)C(=O)CN(CCc1ccccc1)C(=O)CNCCCN [Compound 29] | 24.8 | 0.237 | 343.4 | 1.64E+03 | 6.72E+03 |

Further lines, with some results ahead:

| % Encapsulation [2] [%] | Size PDI [3] | Size (nm) [3] [nm] | SMILES | Luciferase Expression (RLU) 6 h [1] [RLU] | Luciferase Expression (RLU) 24 h [1] [RLU] |
| --- | --- | --- | --- | --- | --- |
| 82.5 | 0.077 | 234 | CCCCCCCCCCN(CC(N)=O)C(=O)CN(CCCCCCCCCC)C(=O)CN(CCCCCCCCCC)C(=O)CN(CCCCCCCCCC)C(=O)CN(CCc1ccccc1)C(=O)CN(CCc1ccccc1)C(=O)CN(CCN)C(=O)CN(CCc1ccccc1)C(=O)CN(CCc1ccccc1)C(=O)CN(CCN)C(=O)CN(CCc1ccccc1)C(=O)CN(CCc1ccccc1)C(=O)CNCCN [Compound 8] | 1.10E+04 | 1.33E+04 |
| 58.0 | 0.295 | 348.4 | CCCCCCCCCCN(CC(N)=O)C(=O)CN(CCCCCCCCCC)C(=O)CN(CCCCCCCCCC)C(=O)CN(CCCCCCCCCC)C(=O)CN(CCc1ccccc1)C(=O)CN(CCc1ccccc1)C(=O)CN(CC1CCCN1)C(=O)CN(CCc1ccccc1)C(=O)CN(CCc1ccccc1)C(=O)CN(CC1CCCN1)C(=O)CN(CCc1ccccc1)C(=O)CN(CCc1ccccc1)C(=O)CNCC1CCCN1 (stereo not shown) [Compound 34] | 1.95E+03 | 2.71E+03 |
| 38.0 | 0.486 | 359.8 | CCCCCCCCCCN(CC(N)=O)C(=O)CN(CCCCCCCCCC)C(=O)CN(CCCCCCCCCC)C(=O)CN(CCCCCCCCCC)C(=O)CN(CCc1ccccc1)C(=O)CN(CCc1ccccc1)C(=O)CN(CC1CCCN1)C(=O)CN(CCc1ccccc1)C(=O)CN(CCc1ccccc1)C(=O)CN(CC1CCCN1)C(=O)CN(CCc1ccccc1)C(=O)CN(CCc1ccccc1)C(=O)CN(CC1CCCN1)C(=O)CN(CCc1ccccc1)C(=O)CN(CCc1ccccc1)C(=O)CNCC1CCCN1 (stereo not shown) [Compound 35] | 1.22E+03 | 1.60E+03 |
